Experimental data taken from patent publication US20080241254A1, “PHARMACEUTICAL COMPOSITION COMPRISING ATOVAQUONE PARTICLES” (priority 2007, published 2008).

Assays:
[1] = Particle size of atovaquone particles, light scattering (Malvern Mastersizer); assay type: physicochemical; conditions: milled atovaquone particles before formulation
From the text: Conventionally known particle size analysis methods can be used suitably for determining the particle size. For example, particle size measurement can be done using light-scattering methods and turbidimetric methods, sedimentation methods, such as pipette analysis technique using an Andreassen pipette, sedimentation scales, photosedimentometers and sedimentation in a centrifugal force field, pulse methods, for example using a Coulter counter, or sorting by means of gravitational or centrifugal force.
The term “d9o value” means at least 90% of atovaquone particles have volume diameter less than specified value when measured by a light scattering method, for example, Malvern Mastersizer.
Atovaquone was air jet milled using at inlet feeder air pressure of 6 kg/cm2 and inlet miller air pressure of 8 kg/cm2 at the rate of 100 g/hour. After one cycle the contents were again milled through air jet mill for second cycle to obtain the desired particle size.

[2] = single oral dose, presence of fatty food; cited from earlier work
[3] = cited from earlier work

O=C1C(O)=C(C2CCC(c3ccc(Cl)cc3)CC2)C(=O)c2ccccc21 (stereo not shown) [Atovaquone, 2-[4-(4-chlorophenyl)cyclohexyl]-3-hydroxy-1,4-naphthoquinone]
d90 particle size [1]: 5.34 μm | d50 particle size ([1]; measured by Malvern): 2.42 μm | effect of fatty food on absorption [2]: increased about threefold | aqueous solubility [3]: low aqueous solubility
